Laboratory results: PMC10388204, “Different conformational dynamics of SNARE protein Ykt6 among yeast and mammals” (The Journal of Biological Chemistry, 2023)
Changes are numbered by the printed parent chain.

What was measured:
Assay in all cases: isothermal titration calorimetry
Type in all cases: binding
[1] = target: T1, yYkt6ΔC (Saccharomyces cerevisiae, UniProt P36015, Q57A/T46L)
T1 construct: gene YKT6; residues 1-195, C-terminal CCIIM motif removed; His6 tag; pET-M3C; E. coli BL21(DE3); not lipidated
T1 sequence (P36015 1-195 T46L/Q57A): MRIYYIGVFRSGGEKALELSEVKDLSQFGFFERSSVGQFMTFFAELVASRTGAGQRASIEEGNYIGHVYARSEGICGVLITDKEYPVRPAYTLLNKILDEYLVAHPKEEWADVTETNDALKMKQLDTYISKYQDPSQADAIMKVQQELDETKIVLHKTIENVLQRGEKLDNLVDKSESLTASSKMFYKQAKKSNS

[2] = target: T2, yYkt6ΔC (Saccharomyces cerevisiae, UniProt P36015, T46L/Q57A/L172A); details: 50 mM Tris pH 8.0, 100 mM NaCl, 1 mM EDTA, 1 mM β-mercaptoethanol, 25 °C
T2 construct: gene YKT6; residues 1-195, C-terminal CCIIM motif removed; His6 tag; pET-M3C; E. coli BL21(DE3); not lipidated
T2 sequence (P36015 1-195 T46L/Q57A/L172A): T1 sequence (P36015 1-195 T46L/Q57A) with L172A

[3] = target: T3, yYkt6ΔC (Saccharomyces cerevisiae, UniProt P36015, T46L/Q57A/L169A); details: 50 mM Tris pH 8.0, 100 mM NaCl, 1 mM EDTA, 1 mM β-mercaptoethanol, 25 °C
T3 construct: gene YKT6; residues 1-195, C-terminal CCIIM motif removed; His6 tag; pET-M3C; E. coli BL21(DE3); not lipidated
T3 sequence (P36015 1-195 T46L/Q57A/L169A): T1 sequence (P36015 1-195 T46L/Q57A) with L169A

[4] = target: T4, yYkt6ΔC (Saccharomyces cerevisiae, UniProt P36015); details: 50 mM Tris pH 8.0, 100 mM NaCl, 1 mM EDTA, 1 mM β-mercaptoethanol, 25 °C
T4 construct: gene YKT6; residues 1-195, C-terminal CCIIM motif removed; His6 tag; pET-M3C; E. coli BL21(DE3); not lipidated
T4 sequence (P36015 1-195): T1 sequence (P36015 1-195 T46L/Q57A) with L46T, A57Q

[5] = target: T5, rYkt6ΔC (Rattus norvegicus, UniProt Q5EGY4)
T5 construct: gene Ykt6; residues 1-193, C-terminal CCAIM motif removed; His6 tag; pET-M3C; E. coli BL21(DE3); not lipidated
T5 sequence (Q5EGY4 1-193): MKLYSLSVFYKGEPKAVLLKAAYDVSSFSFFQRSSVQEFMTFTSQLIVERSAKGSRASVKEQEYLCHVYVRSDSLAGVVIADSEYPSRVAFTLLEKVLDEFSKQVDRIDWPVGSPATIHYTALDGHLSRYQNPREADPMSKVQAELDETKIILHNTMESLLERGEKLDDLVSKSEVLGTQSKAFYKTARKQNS

[6] = target: T6, yYkt6ΔC (Saccharomyces cerevisiae, UniProt P36015, S176D); details: 50 mM Tris pH 8.0, 100 mM NaCl, 1 mM EDTA, 1 mM β-mercaptoethanol, 25 °C
T6 construct: gene YKT6; residues 1-195, C-terminal CCIIM motif removed; His6 tag; pET-M3C; E. coli BL21(DE3); not lipidated
T6 sequence (P36015 1-195 S176D): T1 sequence (P36015 1-195 T46L/Q57A) with L46T, A57Q, S176D

[7] = target: T7, rYkt6ΔC (Rattus norvegicus, UniProt Q5EGY4, S174D); details: 50 mM Tris pH 8.0, 100 mM NaCl, 1 mM EDTA, 1 mM β-mercaptoethanol, 25 °C
T7 construct: gene Ykt6; residues 1-193, C-terminal CCAIM motif removed; His6 tag; pET-M3C; E. coli BL21(DE3); not lipidated
T7 sequence (Q5EGY4 1-193 S174D): T5 sequence (Q5EGY4 1-193) with S174D

Kd [1]: 33.3 µM
Kd [5]: 38.5 µM
SMILES: CCCCCCCCCCCCOP(=O)([O-])OCC[N+](C)(C)C [DPC, dodecylphosphocholine]
no binding [2]: ITC measurements showed that these mutations disrupt the binding with DPC
no binding [3]: ITC measurements showed that these mutations disrupt the binding with DPC
no binding [4]: It turns out that DPC could not bind to yYkt6ΔC
no binding [6]: the phospho-mutant yYkt6ΔC-S176D could not bind DPC either
no binding [7]: ITC experiments showed that DPC could not bind to rYkt6ΔC-S174D mutant
